Laboratory results reported in patent publication US20250263395A1, “COMPOUNDS THAT MEDIATE PROTEIN DEGRADATION AND METHODS OF USE THEREOF” (Monte Rosa Therapeutics AG, priority 2022, published 2025).

What was measured:
CDK2 = CDK2 (Homo sapiens (Human), UniProt P24941); assay: CDK2 NanoBiT assay (HiBiT-tagged CDK2 degradation); assay type: cell-based; details: HEK293, HEK293 clonal line, C-terminal HiBiT tag on CDK2, LgBiT; 24 hours
Method: Example 145. NanoBiT Assay
A HEK293 clonal line with a CRISPR knock-in C-terminal HiBiT tag on CDK2 and stably expressing LgBiT protein was obtained from Promega (Madison, WI). Cells were plated at 5000 cells per well using Multiflo (BioTek) in 384-well white solid bottom plates (Corning, 3570BC) in 25 ul volume in DMEM media (DMEM, high glucose, HEPES, no phenol red (ThermoFisher Scientific, 21063029)) containing 10% FBS (Corning, 35-075-CV), 1% Peniciliin/Streptomycin ((ThermoFisher Scientific, 15140-122), and 1% Endurazine (Nano-Glo Endurazine Live Cell Substrate (Promega, N2571)). Cells were incubated for 16 hours at 37 C, 5% CO2. 75 nL of a compound at 30 μM were dosed into the plate using an Echo® 650 liquid handler (Labcyte). Cells were incubated at 37° C., 5% CO2 for 24 hours and then signal was read on a Pherastar FSX using “LUM plus” optic module.
Analysis was performed in Scinamic (Scinamic, Cambridge, MA). Luminescence response (R) was calculated by the formula: response=100*(S−N)/(P−N) where S is the signal of the well, N and P the mean negative and positive control values respectively of the same plate. The luminescence response was then fitted in Scinamic using a 3-parameter agonist logistic fit (hillslope=1, EC50>0, top/bottom unconstrained).

CRBN-DDB1 = CRBN-DDB1 (Homo sapiens (Human), UniProt Q96SW2); assay: CRBN HTRF assay (Cy5-Thalidomide probe displacement); assay type: binding; details: CRBN-DDB1 2.5 nM, Cy5-Thalidomide 100 nM, 30 min; Ki from geometric mean IC50 by Cheng-Prusoff
Sequence of CRBN-DDB1 (Q96SW2 whole entry): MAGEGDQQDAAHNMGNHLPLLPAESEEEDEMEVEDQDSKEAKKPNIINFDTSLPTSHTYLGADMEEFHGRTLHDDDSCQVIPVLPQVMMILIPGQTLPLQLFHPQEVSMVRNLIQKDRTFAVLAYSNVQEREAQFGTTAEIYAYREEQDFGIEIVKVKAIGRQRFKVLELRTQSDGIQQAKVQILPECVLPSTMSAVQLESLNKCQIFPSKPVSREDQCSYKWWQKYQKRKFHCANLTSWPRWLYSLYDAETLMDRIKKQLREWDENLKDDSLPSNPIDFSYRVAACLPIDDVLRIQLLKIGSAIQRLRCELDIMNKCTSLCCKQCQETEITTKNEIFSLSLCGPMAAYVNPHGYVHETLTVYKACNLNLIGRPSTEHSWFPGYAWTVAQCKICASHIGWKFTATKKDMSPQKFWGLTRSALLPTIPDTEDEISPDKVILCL
Sequence of CRBN-DDB1 (Q16531 whole entry partner): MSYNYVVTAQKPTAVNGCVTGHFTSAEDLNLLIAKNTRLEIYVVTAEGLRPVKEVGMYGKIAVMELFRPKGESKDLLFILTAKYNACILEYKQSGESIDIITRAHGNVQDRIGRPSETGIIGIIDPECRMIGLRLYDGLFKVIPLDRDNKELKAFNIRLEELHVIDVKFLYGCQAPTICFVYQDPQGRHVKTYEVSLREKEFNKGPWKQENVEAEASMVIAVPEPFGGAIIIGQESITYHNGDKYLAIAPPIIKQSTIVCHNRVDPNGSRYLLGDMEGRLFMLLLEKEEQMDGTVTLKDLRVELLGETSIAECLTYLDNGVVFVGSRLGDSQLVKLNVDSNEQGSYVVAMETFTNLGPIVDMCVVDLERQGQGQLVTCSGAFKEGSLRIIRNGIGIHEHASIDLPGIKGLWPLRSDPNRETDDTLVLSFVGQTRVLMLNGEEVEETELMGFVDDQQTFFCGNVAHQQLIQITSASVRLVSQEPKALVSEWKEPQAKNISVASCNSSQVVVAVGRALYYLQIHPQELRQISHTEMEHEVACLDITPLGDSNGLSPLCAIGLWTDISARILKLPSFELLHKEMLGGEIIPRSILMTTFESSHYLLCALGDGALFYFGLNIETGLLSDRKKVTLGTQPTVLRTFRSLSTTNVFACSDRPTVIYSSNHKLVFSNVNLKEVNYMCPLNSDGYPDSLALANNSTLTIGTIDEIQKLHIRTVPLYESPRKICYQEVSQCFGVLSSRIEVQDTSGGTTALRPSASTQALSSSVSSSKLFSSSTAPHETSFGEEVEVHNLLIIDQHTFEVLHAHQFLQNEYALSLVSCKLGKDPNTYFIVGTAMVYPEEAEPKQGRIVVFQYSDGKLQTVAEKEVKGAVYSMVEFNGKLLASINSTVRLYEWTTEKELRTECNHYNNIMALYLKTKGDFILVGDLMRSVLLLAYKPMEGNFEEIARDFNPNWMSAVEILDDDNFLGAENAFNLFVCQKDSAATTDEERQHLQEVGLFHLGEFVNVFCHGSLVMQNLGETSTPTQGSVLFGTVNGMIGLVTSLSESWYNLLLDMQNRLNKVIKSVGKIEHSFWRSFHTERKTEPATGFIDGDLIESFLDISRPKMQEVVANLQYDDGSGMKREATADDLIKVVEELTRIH
Method: Compound activity was monitored in a Homogenous Time-Resolved Fluorescence (HTRF) assay using 1-[5-({2-[2-(2-{[2-(2,6-dioxopiperidin-3-yl)-1,3-dioxo-2,3-dihydro-1H-isoindol-4-yl]oxy}acetamido)ethoxy]ethyl}carbamoyl)pentyl]-3,3-dimethyl-2-[(1E,3E)-5-[(2E)-1,3,3-trimethyl-5-sulfo-2,3-dihydro-1H-indol-2-ylidene]penta-1,3-dien-1-yl]-3H-indol-1-ium-5-sulfonate as a fluorescent probe. Biochemical assays were conducted in Greiner white 384 well HiBase plates (Cat. No 784075-25) in 10 μL total volume. A one pot detection solution of CRBN-DDB1 (2.5 nM), Anti-His Terbium Cryptate Gold (1×, PerkinElmer Cat. #: 61HI2TLB), and Cy5-Thalidomide (100 nM, Tenova Cat.: T52461) was prepared in 20 mM HEPES, 20 mM NaCl, 0.2 mM TCEP, 0.2 mM EDTA, and 0.005% Tween20 was dispensed to each assay plate. Compounds were stored in dry, ambient temperatures at 10 mM. A 10-point, 1:3 dilution series was prepared from 10 mM stock concentrations in Echo-compatible LDV plates. 10 nL of each compound dilution series was dispensed into assays wells using an Echo 650 (Labcyte inc. USA). 10 nL of 10 mM Lenalidomide was transferred into the active-control wells for the assay and 10 nL of DMSO was transferred into the neutral-control wells. The assay was then allowed to incubate for 30 min at ambient temperature after transferring compound. Plate measurements were taken on a Pherastar FSX (BMG Labtech, Germany) using the HTRF Red filter (Ex. 337 nm, em1: 620 nm, em2: 665 nm) (Flashes: 50, Integration time: 60-400 us, Z-height: 10 mm, Ratio-multiplier: 10,000). The HTRF signal was then subsequently normalized to the neutral and active controls. Analysis and IC50 values were derived using KNIME analytics (KNIME Zurich) transformation and fitting within Collaborative Drug Discovery (Collaborative Drug Discovery USA). Ki was derived from the geometric mean of the IC50 values using the Cheng-Prustoff transformation.

Dmax (CDK2)	Ki (CRBN-DDB1)	SMILES
50 to 80%	≤ 100 nM	COc1ccc(N(C)C(=O)N2CC(OC(=O)NC3CN(c4cc(F)c(C5CCC(=O)NC5=O)c(F)c4)C3)C2)cc1 (stereo not drawn) [Compound 13, 1-((4-methoxyphenyl)(methyl)carbamoyl)azetidin-3-yl(1-(4-(2,6-dioxopiperidin-3-yl)-3,5-difluorophenyl)azetidin-3-yl)carbamate]
50 to 80%	≤ 100 nM	Cc1cc(N2CC(NC(=O)OC3CN(C(=O)N(C)C4CC4)C3)C2)cc(F)c1C1CCC(=O)NC1=O (stereo not drawn) [Compound 15, 1-(cyclopropyl(methyl)carbamoyl)azetidin-3-yl (1-(4-(2,6-dioxopiperidin-3-yl)-3-fluoro-5-methylphenyl)azetidin-3-yl)carbamate]
50 to 80%	≤ 100 nM	CN(C(=O)C12CC(OC(=O)NC3CN(c4cc(F)c(C5CCC(=O)NC5=O)c(F)c4)C3)(C1)C2)c1ccc(F)cc1 (stereo not drawn) [Compound 132, 3-((4-fluorophenyl)(methyl)carbamoyl)bicyclo[1.1.1]pentan-1-yl (1-(4-(2,6-dioxopiperidin-3-yl)-3,5-difluorophenyl)azetidin-3-yl)carbamate]
50 to 80%	≤ 100 nM	Cn1c(N2CC(OC(=O)NC3CN(c4cc(F)c(C5CCC(=O)NC5=O)c(F)c4)C3)C2)nc2ccccc21 (stereo not drawn) [Compound 75, 1-(1-methyl-1H-benzo[d]imidazol-2-yl)azetidin-3-yl (1-(4-(2,6-dioxopiperidin-3-yl)-3,5-difluorophenyl)azetidin-3-yl)carbamate]
10 to 50%	≤ 100 nM	COc1ccc(C(=O)N2CC(OC(=O)NC3CN(c4cc(F)c(C5CCC(=O)NC5=O)c(F)c4)C3)C2)cc1 (stereo not drawn) [Compound 21, 1-(4-methoxybenzoyl)azetidin-3-yl (1-(4-(2,6-dioxopiperidin-3-yl)-3,5-difluorophenyl)azetidin-3-yl)carbamate]
50 to 80%	≤ 100 nM	CN(C(=O)N1CC(OC(=O)NC2CN(c3cc(F)c(C4CCC(=O)NC4=O)c(F)c3)C2)C1)c1ccc(C#N)cc1 (stereo not drawn) [Compound 73, 1-((4-cyanophenyl)(methyl)carbamoyl)azetidin-3-yl (1-(4-(2,6-dioxopiperidin-3-yl)-3,5-difluorophenyl)azetidin-3-yl)carbamate]
50 to 80%	≤ 100 nM	O=C1CCC(c2c(F)cc(N3CC(NC(=O)OC4CN(C(=O)Cc5ccccc5)C4)C3)cc2F)C(=O)N1 (stereo not drawn) [Compound 74, 1-(2-phenylacetyl)azetidin-3-yl (1-(4-(2,6-dioxopiperidin-3-yl)-3,5-difluorophenyl)azetidin-3-yl)carbamate]
50 to 80%	≤ 100 nM	O=C1CCC(c2c(F)cc(N3C[C@H](NC(=O)OCC4CC5(CCC5)C4)CC3=O)cc2F)C(=O)N1 (stereo partly drawn) [Compound 58, spiro[3.3]heptan-2-ylmethyl ((3R)-1-(4-(2,6-dioxopiperidin-3-yl)-3,5-difluorophenyl)-5-oxopyrrolidin-3-yl)carbamate]
50 to 80%	≤ 100 nM	Cc1cccc(N(C)C(=O)C23CC(OC(=O)NC4CN(c5cc(F)c(C6CCC(=O)NC6=O)c(F)c5)C4)(C2)C3)c1 (stereo not drawn) [Compound 134, 3-(methyl(m-tolyl)carbamoyl)bicyclo[1.1.1]pentan-1-yl (1-(4-(2,6-dioxopiperidin-3-yl)-3,5-difluorophenyl)azetidin-3-yl)carbamate]
50 to 80%	≤ 100 nM	O=C1CCC(c2c(F)cc(N3CC(NC(=O)OC4CN(C(=O)N5CCC56CCC6)C4)C3)cc2F)C(=O)N1 (stereo not drawn) [Compound 33, 1-(1-azaspiro[3.3]heptane-1-carbonyl)azetidin-3-yl (1-(4-(2,6-dioxopiperidin-3-yl)-3,5-difluorophenyl)azetidin-3-yl)carbamate]
50 to 80%	≤ 100 nM	CN(C(=O)C12CC(OC(=O)NC3CN(c4cc(F)c(C5CCC(=O)NC5=O)c(F)c4)C3)(C1)C2)C1CC1 (stereo not drawn) [Compound 78, 3-(cyclopropyl(methyl)carbamoyl)bicyclo[1.1.1]pentan-1-yl (1-(4-(2,6-dioxopiperidin-3-yl)-3,5-difluorophenyl)azetidin-3-yl)carbamate]
50 to 80%	> 1000 nM	N#Cc1cc(C2CCC(=O)NC2=O)ccc1N1CC(Nc2nnc(C3CC4(CCC4)C3)o2)C1 (stereo not drawn) [Compound 89, 5-(2,6-dioxopiperidin-3-yl)-2-(3-((5-(spiro[3.3]heptan-2-yl)-1,3,4-oxadiazol-2-yl)amino)azetidin-1-yl)benzonitrile]
> 80%	100 to 1000 nM	O=C1CCC(c2ccc(N3CC(NC(=O)OCC4CC5(CCC5)C4)C3)cc2)C(=O)N1 (stereo not drawn) [Compound 62, spiro[3.3]heptan-2-ylmethyl (1-(4-(2,6-dioxopiperidin-3-yl)phenyl)azetidin-3-yl)carbamate]
> 80%	≤ 100 nM	CN(C(=O)N1CC(OC(=O)NC2CN(c3cc(F)c(C4CCC(=O)NC4=O)c(F)c3)C2)C1)c1ccc(F)cc1 (stereo not drawn) [Compound 72, 1-((4-fluorophenyl)(methyl)carbamoyl)azetidin-3-yl (1-(4-(2,6-dioxopiperidin-3-yl)-3,5-difluorophenyl)azetidin-3-yl)carbamate]
50 to 80%	100 to 1000 nM	Cc1ccccc1N(C)C(=O)C12CC(OC(=O)NC3CN(c4cc(F)c(C5CCC(=O)NC5=O)c(F)c4)C3)(C1)C2 (stereo not drawn) [Compound 135, 3-(methyl(o-tolyl)carbamoyl)bicyclo[1.1.1]pentan-1-yl (1-(4-(2,6-dioxopiperidin-3-yl)-3,5-difluorophenyl)azetidin-3-yl)carbamate]
50 to 80%	≤ 100 nM	O=C1CCC(c2c(F)cc(N3CC(Nc4nnc(Cc5ccccc5)o4)C3)cc2F)C(=O)N1 (stereo not drawn) [Compound 100, 3-(4-(3-((5-benzyl-1,3,4-oxadiazol-2-yl)amino)azetidin-1-yl)-2,6-difluorophenyl)piperidine-2,6-dione]
> 80%	100 to 1000 nM	COc1c(N2CC(NC(=O)OCC3CC4(CCC4)C3)C2)ccc(C2CCC(=O)NC2=O)c1Cl (stereo not drawn) [Compound 63, spiro[3.3]heptan-2-ylmethyl (1-(3-chloro-4-(2,6-dioxopiperidin-3-yl)-2-methoxyphenyl)azetidin-3-yl)carbamate]
10 to 50%	≤ 100 nM	Cn1nccc1N1CC(OC(=O)NC2CN(c3cc(F)c(C4CCC(=O)NC4=O)c(F)c3)C2)C1 (stereo not drawn) [Compound 7, 1-(1-methyl-1H-pyrazol-5-yl)azetidin-3-yl (1-(4-(2,6-dioxopiperidin-3-yl)-3,5-difluorophenyl)azetidin-3-yl)carbamate]
> 80%	≤ 100 nM	O=C1CCC(c2c(F)cc(N3CC(NC(=O)OC4CC5(CCCCC5)C4)C3)cc2F)C(=O)N1 (stereo not drawn) [Compound 67, spiro[3.5]nonan-2-yl (1-(4-(2,6-dioxopiperidin-3-yl)-3,5-difluorophenyl)azetidin-3-yl)carbamate]
50 to 80%	≤ 100 nM	CN(C(=O)N1CC(OC(=O)NC2(C)CN(c3cc(F)c(C4CCC(=O)NC4=O)c(F)c3)C2)C1)C1CC1 (stereo not drawn) [Compound 12, 1-(cyclopropyl(methyl)carbamoyl)azetidin-3-yl (1-(4-(2,6-dioxopiperidin-3-yl)-3,5-difluorophenyl)-3-methylazetidin-3-yl)carbamate]

SMILES	Dmax (CDK2)	Ki (CRBN-DDB1)
CC(C)(C)[Si](C)(C)O[C@H]1C[C@H](COC(=O)NC2CN(c3cc(F)c(C4CCC(=O)NC4=O)c(F)c3)C2)C1 (stereo partly drawn) [Compound 50, ((1r, 3r)-3-((tert-butyldimethylsilyl)oxy)cyclobutyl)methyl (1-(4-(2,6-dioxopiperidin-3-yl)-3,5-difluorophenyl)azetidin-3-yl)carbamate]	> 80%	100 to 1000 nM
